The supplement of paper PMC10307832

How the values were obtained:
Experiment in all cases: relative viability (nuclei count vs DMSO), 5 days (fraction); higher = more cells survive
AZD5582 = compound: C[C@@H](C(=O)N[C@@H](C1CCCCC1)C(=O)N2CCC[C@H]2C(=O)N[C@@H]3[C@@H](CC4=CC=CC=C34)OCC#CC#CCO[C@@H]5CC6=CC=CC=C6[C@@H]5NC(=O)[C@@H]7CCCN7C(=O)[C@H](C8CCCCC8)NC(=O)[C@H](C)NC)NC [AZD5582]
How it was run: (§1)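 On vehicle-anchored 1536-well plates, lung cancer cell lines held overnight at 37 °C were pinned with five library-drug doses (not always all listed) spaced by √10. With no medium change over 5 days, they were then fixed, permeabilised and Hoechst-stained in one step and imaged at 4×. MetaXpress counted nuclei, and viability is the median across plates of treated-well over vehicle-well nuclei. Acceptance needed control CV below 25% and at least one doubling.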

Temozolomide = compound: Cn1nnc2c(C(N)=O)ncn2c1=O [Temozolomide]
How it was run: as §1

AZD5582 + Alpelisib = compound: C[C@@H](C(=O)N[C@@H](C1CCCCC1)C(=O)N2CCC[C@H]2C(=O)N[C@@H]3[C@@H](CC4=CC=CC=C34)OCC#CC#CCO[C@@H]5CC6=CC=CC=C6[C@@H]5NC(=O)[C@@H]7CCCN7C(=O)[C@H](C8CCCCC8)NC(=O)[C@H](C)NC)NC [AZD5582] + Cc1nc(NC(=O)N2CCC[C@H]2C(N)=O)sc1-c1ccnc(C(C)(C)C(F)(F)F)c1 [Alpelisib] (partner 2 µM)
How it was run: (§2)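 A single step with final 0.05% Triton X-100, 1% formaldehyde and 1 ug/ml Hoechst fixed the cells and stained nuclei 5 days after treatment. Lung cancer cell lines in 1536-well plates had been treated by pin tool the day after seeding with one drug alone or a fixed anchor-drug dose plus five library-drug doses (not always all listed) in √10 steps, and nuclei were counted on 4× images. Relative viability is the ratio of nuclei in treated wells to nuclei in vehicle wells, taken as the median of duplicate plates.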

[1] = compound: Cn1nnc2c(C(N)=O)ncn2c1=O [Temozolomide] + CC(C)C[C@H](NC(=O)[C@H](Cc1ccccc1)NC(=O)c1cnccn1)B(O)O [Bortezomib] (partner 0.002 µM)
How it was run: as §2

Row | Cell Line | relative viability (AZD5582; 0.001581 µM) | relative viability (AZD5582; 0.01581 µM) | relative viability (AZD5582; 0.05 µM) | relative viability (Temozolomide; 0.2 µM) | relative viability (Temozolomide; 0.6325 µM) | relative viability (Temozolomide; 2 µM) | relative viability (Temozolomide; 6.325 µM) | relative viability (Temozolomide; 20 µM) | relative viability (AZD5582 + Alpelisib; first compound 0.001581 µM) | relative viability (AZD5582 + Alpelisib; first compound 0.005 µM) | relative viability (AZD5582 + Alpelisib; first compound 0.01581 µM) | relative viability (AZD5582 + Alpelisib; first compound 0.05 µM) | relative viability ([1]; first compound 0.2 µM) | relative viability ([1]; first compound 0.6325 µM) | relative viability ([1]; first compound 2 µM) | relative viability ([1]; first compound 6.325 µM) | relative viability ([1]; first compound 20 µM) | relative viability (AZD5582; 0.005 µM)
1 | NCI-H596 | 0.84 | 0.999 | 0.358 | 0.932 | 0.953 | 1.01 | 0.925 | 0.959 | 0.554 | 0.33 | 0.538 | 0.304 | 1.04 | 1.02 | 0.97 | 0.908 | 1.07 | –
2 | 201T | 1.03 | 0.971 | 1.21 | 0.978 | 1 | 1.01 | 0.961 | 0.977 | 1.05 | 1.07 | 0.977 | 1.25 | 1.15 | 1.08 | 1.08 | 1.07 | 1.08 | 1.15
3 | LU99A | 1.07 | 0.954 | 1.11 | 1.06 | 0.946 | 1.03 | 0.97 | 1.03 | 0.554 | 0.594 | 0.499 | 0.611 | 1.28 | 1.17 | 1.07 | 1.06 | 1.01 | 1.02
4 | CAL-12T | 0.647 | 0.784 | 0.551 | 0.908 | 1.04 | 0.959 | 0.95 | 0.95 | – | 0.713 | 1.24 | 1.01 | – | 0.964 | 0.945 | 1.04 | 0.967 | 0.724
5 | NCI-H2126 | 0.93 | 0.808 | 0.901 | 0.957 | 1.03 | 1.05 | 0.98 | 1.03 | 0.785 | 0.766 | 0.695 | 0.762 | 1.13 | 1.15 | 1.1 | 1.1 | 1.08 | 1.04
6 | BEN | 0.926 | 1.05 | 0.828 | 0.956 | 0.94 | 1.03 | 0.813 | 0.766 | 0.884 | 1.07 | 1.16 | 1.27 | 0.965 | 0.77 | 0.911 | 0.577 | 0.588 | 1.01
7 | NCI-H2405 | 1 | 0.957 | 1.02 | 1.05 | 1 | 1.06 | 0.935 | 0.978 | 0.913 | 1.07 | – | 0.933 | 1.07 | 0.976 | 1.01 | 0.715 | 0.954 | 1.12
8 | NCI-H727 | 1.02 | 0.858 | 0.979 | 0.83 | 0.923 | 1.13 | 0.798 | 0.805 | 0.578 | 0.627 | 0.441 | 0.556 | 0.884 | 0.903 | 1.09 | 0.768 | 0.803 | 1.01
9 | NCI-H2023 | 0.842 | 0.84 | 0.934 | 0.979 | 0.943 | 1.01 | 0.984 | 0.941 | 0.562 | 0.538 | 0.567 | 0.609 | 1.01 | 0.905 | 1.05 | 0.933 | 0.855 | 0.962
